# Measured values taken from patent US20220241308A1, “NEURONAL FUNCTION MODULATING AGENT” (University of Tsukuba, priority 2019, published 2022).
# Legend:
# SH-SY5Y cells [1] = test: Cell survival experiment (MTT), cell death induced by amyloid β protein; type: cell-based; conditions: compound 12.56 μM, 72 h, compared to “Aβ”
# Experimental: (§1) Each well of a 96-well plate (BD Biocoat) was seeded with SH-SY5Y cells (model of neuronal cells, ATCC) at a concentration of 2×10^5 cells/mL (100 μL/well) and the cells were cultured at 37° C. and 5% CO2 for 24 h. Culture medium used was F12/DMEM (Gibco) supplemented with 1% non-essential amino acids (Gibco), 15% FBS (Bio West), and 1% penicillin/streptomycin (Lonza).
# After 24 h, the culture medium was completely removed with an aspirator, 100 μL of culture medium Opti-MEM (Gibco) was added to each well, and the cells were cultured at 37° C. and 5% CO2 for 24 h. […]
# Absorbance at 570 nm was measured on a microplate reader (Sumitomo Dainippon Pharma) to measure the MTT formazan production to calculate % relative cell survival (designated as “Control” in FIG. 1).
# 24 h after seeding a 96-well plate (BD Biocoat) with SH-SY5Y cells, the culture medium was completely removed with an aspirator, amyloid β protein (Beta-Amyloid 1-42, AnaSpec) was mixed with Opti-MEM (Gibco) so that the final concentration was 15 μM, 100 μL of the mixture was added to each well, and the cells were cultured at 37° C. and 5% CO2 for 72 h to induce cell death. Except for performing the procedure described above, the MTT formazan production was measured as described above to calculate % relative cell survival (designated as “Aβ” in FIG. 1). […]
# SH-SY5Y cells [2] = test: Reactive oxygen species measurement experiment (OxiSelect Intracellular ROS assay kit); type: cell-based; conditions: 12.56 μM with amyloid β protein 5 μM, 1 h
# Experimental: Specifically, OxiSelect™ Intracellular ROS assay kit (Cell Biolabs Ink) was used to measure the reactive oxygen species level according to protocol recommended by Cell Biolabs Ink (URL: https://www.cellbiolabs.com/sites/default/files/STA-342-ROS-assay-kit.pdf)) of Cell Biolabs Ink Co., Ltd. (designated as “Control” in FIG. 10).
# as §1, with “(ATCC, model” for “(model”, “cells)” for “cells, ATCC)”, “cells” for “cells were”
# After 24 h, the culture medium was completely removed with an aspirator, 20×DCFH-DA (reagent included in the assay kit) was mixed with culture medium Opti-MEM (Gibco) (reagent was diluted 20 times), 100 μL of the mixture was added to each well, and the cells were cultured at 37° C. and 5% CO2 for 1 h. The culture medium Opti-MEM with 20×DCFH-DA was then completely removed with an aspirator, […] of fresh Opti-MEM (Gibco) was added to each well, and the cells were cultured at 37° C. and 5% CO2 for 1 h. […] Fluorescence at 480 nm/530 nm was measured on a microplate reader (Sumitomo Dainippon Pharma) to find the relative ROS production (designated as “Control” in FIG. 10). […]
compound,measurement,setting,value
"COc1cc(-c2[o+]c3cc(O)cc(OC4OC(CO)C(O)C(O)C4O)c3cc2OC2OC(CO)C(O)C(O)C2O)cc(OC)c1O (stereo not drawn) [M3,5G, Malvidin-3,5-diglucoside chloride]",% relative cell survival,SH-SY5Y cells [1],significantly high
same,ROS production,SH-SY5Y cells [2]; compared to “Aβ”,significant reductions
same,ROS production,SH-SY5Y cells [2]; compared to “Control”,no significance
